This is an account of results in ChEMBL document CHEMBL2303647, “Data associated with the publication PLoS ONE, 8(3), e57888, (2013) PMID: 23505445. Compounds: GSK PKIS; Assays: NIH NCATS”.

The target of test [1] is Luciferin 4-monooxygenase (Photinus pyralis, UniProt P08659).
Description: GSK_PKIS: Inhibition of Firefly Luciferase (Data from PubChem: AID 652016) [NIH NCATS]
The target of test [2] is T1, Coelenterazine h 2-monooxygenase (Renilla reniformis, UniProt P27652).
T1 sequence (P27652 whole entry): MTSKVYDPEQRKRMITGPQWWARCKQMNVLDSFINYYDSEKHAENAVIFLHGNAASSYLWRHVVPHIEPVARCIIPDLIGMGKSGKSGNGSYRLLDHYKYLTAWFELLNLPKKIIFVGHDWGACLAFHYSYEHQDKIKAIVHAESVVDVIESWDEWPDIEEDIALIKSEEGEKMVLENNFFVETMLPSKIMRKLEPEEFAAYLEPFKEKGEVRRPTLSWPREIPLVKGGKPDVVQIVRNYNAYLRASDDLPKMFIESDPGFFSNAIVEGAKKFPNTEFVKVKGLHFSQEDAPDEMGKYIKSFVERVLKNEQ
Description: GSK_PKIS: Inhibition of Sea Pansy Luciferase (Data from PubChem: AID 652015) [NIH NCATS]

Luciferin 4-monooxygenase, sequence (P08659 whole entry): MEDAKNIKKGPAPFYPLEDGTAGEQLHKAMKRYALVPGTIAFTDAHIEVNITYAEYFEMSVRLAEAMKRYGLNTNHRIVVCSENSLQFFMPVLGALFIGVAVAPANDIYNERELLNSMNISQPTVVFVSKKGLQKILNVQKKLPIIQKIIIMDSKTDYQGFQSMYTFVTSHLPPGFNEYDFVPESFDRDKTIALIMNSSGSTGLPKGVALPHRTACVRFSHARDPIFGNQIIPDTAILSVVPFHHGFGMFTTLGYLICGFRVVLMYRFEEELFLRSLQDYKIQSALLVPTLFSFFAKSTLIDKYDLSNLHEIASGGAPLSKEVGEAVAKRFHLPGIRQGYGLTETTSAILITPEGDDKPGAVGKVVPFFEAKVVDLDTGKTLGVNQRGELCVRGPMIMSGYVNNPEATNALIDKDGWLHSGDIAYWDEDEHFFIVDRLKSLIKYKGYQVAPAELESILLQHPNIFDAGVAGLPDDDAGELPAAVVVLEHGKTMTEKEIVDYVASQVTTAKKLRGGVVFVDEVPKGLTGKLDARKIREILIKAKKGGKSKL

The AC50 is the concentration at which the activity in the assay is half-maximal. Consider `CS(=O)(=O)CCNCc1ccc(-c2ccc3ncnc(Nc4ccc(OCc5cccc(F)c5)c(C(F)(F)F)c4)c3c2)o1` [GW576484X], for which the AC50 result in test [1] and in test [2] was “Phenotype: Inactive; Curve_Description: None” each time.

For `O=C(O)C(F)(F)F.[O-][S+]1CCN(Cc2ccc(-c3ccc4ncnc(Nc5ccc(OCc6cccc(F)c6)c(Cl)c5)c4c3)o2)CC1` [GW576609A], the results for the AC50 in test [1] (read-out: AC50) and in test [2] were 18.3 µM and “Phenotype: Inactive; Curve_Description: None”, respectively.

Turning to `Cl.[O-][S+]1CCN(Cc2ccc(-c3ccc4ncnc(Nc5ccc(OCc6ccccc6)c(F)c5)c4c3)o2)CC1` [GW576924A], the results for the AC50 in test [1] (read-out: AC50) and in test [2] were 16.3 µM and “Phenotype: Inactive; Curve_Description: None”, respectively.

On to `COc1ccccc1Nc1ncc(-c2ccccc2)o1.Cl` [GW577921A], for which the results for the AC50 in test [1] (read-out: AC50) and in test [2] were 1.03 µM and “Phenotype: Inactive; Curve_Description: None”, respectively.

Turning to `COc1cc(/C=N/Nc2ncnc3[nH]ncc23)ccc1O` [GW578748X], the AC50 in test [1] (read-out: AC50) is 3.66 µM; in test [2] it was “Phenotype: Inactive; Curve_Description: None”.

Consider `CS(=O)(=O)CCNCc1ccc(-c2ccc3ncnc(Nc4ccc(OCc5ccccc5)c(Br)c4)c3c2)o1.Cl` [GW580496A], for which the results for the AC50 in test [1] (read-out: AC50) and in test [2] were 20.6 µM and “Phenotype: Inactive; Curve_Description: None”, respectively.

`CCS(=O)(=O)c1ccc(OC)c(Nc2ncc(-c3cccc(OC)c3)o2)c1` [GW580509X]: the AC50 entry in test [1] is “Phenotype: Inactive; Curve_Description: None”; in test [2] (read-out: AC50), 18.3 µM.

Consider `NC(=O)c1ccc2c(-c3ccnc(NCCCO)n3)c(-c3ccc(F)cc3)nn2c1` [GW581744X], for which the AC50 result in test [1] and in test [2] was “Phenotype: Inactive; Curve_Description: None” each time.

On to `[O-][S+]1CCN(Cc2ccc(-c3ccc4ncnc(Nc5ccc(OCc6ccccc6)c(Cl)c5)c4c3)o2)CC1` [GW583373A], for which the results for the AC50 in test [1] (read-out: AC50) and in test [2] (read-out: AC50) were 14.6 µM and 0.0005 µM, respectively.

As to `NS(=O)(=O)c1ccc(NC=C2C(=O)Nc3ccc4ncsc4c32)cc1` [GW589933X], the AC50 entry in test [1] is “Phenotype: Inactive; Curve_Description: None”; in test [2] (read-out: AC50), 16.3 µM.

`COC(=O)Nc1nc2ccc(Oc3ccc(NC(=O)Nc4cccc(Cl)c4)cc3)cc2[nH]1.Cl` [GW589961A]: the figures for the AC50 in test [1] (read-out: AC50) and in test [2] were 20.6 µM and “Phenotype: Inactive; Curve_Description: None”, respectively.

Consider `COC(=O)Nc1nc2ccc(Sc3ccc(NC(=O)Nc4cc(C(F)(F)F)ccc4F)cc3)cc2[nH]1.O=S(=O)(O)O` [GW607049C], for which the half-maximal activity concentration (AC50) result is “Phenotype: Inactive; Curve_Description: None” in test [1] and 0.0006 µM in test [2] (read-out: AC50).

For `Cc1nnc(-c2ccc(C)c(-c3ccc(C(=O)Nc4cccc(C#N)c4)cc3)c2)o1` [GW607117X], the AC50 in test [1] (read-out: AC50) was 41.1 µM; in test [2], “Phenotype: Inactive; Curve_Description: None”.

In the case of `COc1cc(Nc2nccc(Nc3ccc4c(C)n[nH]c4c3)n2)cc(OC)c1OC` [GW612286X], the results for the AC50 in test [1] (read-out: AC50) and in test [2] (read-out: AC50) were 18.3 µM and 36.6 µM, respectively.

On to `O=S(=O)(CCOCc1ccc(-c2ccc3ncnc(Nc4ccc(OCc5cccc(F)c5)c(Cl)c4)c3c2)o1)c1ccccc1` [GW615311X], for which the values for the AC50 result in test [1] and in test [2] (read-out: AC50) were “Phenotype: Inactive; Curve_Description: None” and 46.1 µM, respectively.

Take `CS(=O)(=O)CCN(CC#N)Cc1ccc(-c2ccc3ncnc(Nc4ccc(OCc5cccc(F)c5)c(Cl)c4)c3c2)o1` [GW616030X]: the AC50 entry in test [1] and in test [2] was “Phenotype: Inactive; Curve_Description: None” in each case.

For `CN(C)CCCNc1nccc(-c2c(-c3ccc(F)cc3)nn3cc(C(F)(F)F)ccc23)n1.CS(=O)(=O)O` [GW618013A], the AC50 is 41.1 µM in test [1] (read-out: AC50) and “Phenotype: Inactive; Curve_Description: None” in test [2].

Turning to `N#Cc1c(NC(=O)c2cccc3ccccc23)sc2c1CCCC2` [GW620972X], the AC50 in test [1] (read-out: AC50) is 18.3 µM; in test [2], “Phenotype: Inactive; Curve_Description: None”.

As for `CCS(=O)(=O)c1ccc(OC)c(Nc2ncc(-c3cccc(C(C)=O)c3)o2)c1` [GW621431X], the AC50 entry in test [1] and in test [2] was “Phenotype: Inactive; Curve_Description: None” throughout.

With `CCCN(CCS(C)(=O)=O)Cc1ccc(-c2ccc3ncnc(Nc4ccc(OCc5cccc(F)c5)c(Cl)c4)c3c2)o1.Cl` [GW621823A], the AC50 in test [1] (read-out: AC50) is 20.6 µM; in test [2], “Phenotype: Inactive; Curve_Description: None”.

In the case of `CCS(=O)(=O)c1ccc(OC)c(Nc2ncc(-c3cccc(F)c3)o2)c1` [GW621970X], the AC50 entry in test [1] and in test [2] was “Phenotype: Inactive; Curve_Description: None” each time.

As to `CCS(=O)(=O)c1ccc(OC)c(Nc2ncc(-c3ccccc3Cl)o2)c1` [GW622055X], the AC50 result in test [1] was “Phenotype: Inactive; Curve_Description: None”; in test [2] (read-out: AC50) it was 18.3 µM.

For the compound `COc1cc(Nc2ncc(-c3ccccc3)o2)cc(OC)c1OC` [GW627512B], the AC50 entry in test [1] and in test [2] was “Phenotype: Inactive; Curve_Description: None” in each case.

With `Cl.N#Cc1cccc(Nc2ncc(-c3ccccc3)o2)c1` [GW627834A], the AC50 was 1.03 µM in test [1] (read-out: AC50) and “Phenotype: Inactive; Curve_Description: None” in test [2].

Regarding `COc1cc(Nc2ncc(-c3ccccc3)o2)cc(OC)c1` [GW631581B], the AC50 was 6.51 µM in test [1] (read-out: AC50) and “Phenotype: Inactive; Curve_Description: None” in test [2].

As to `Cc1cccc(Nc2ncc(-c3ccccc3)o2)c1` [GW632046X], the AC50 in test [1] (read-out: AC50) was 0.58 µM; in test [2], “Phenotype: Inactive; Curve_Description: None”.

As for `COc1ccc(COc2ccc(Cc3cnc(N)nc3N)cc2OC)cc1` [GW632580X], the AC50 entry in test [1] and in test [2] was “Phenotype: Inactive; Curve_Description: None” each time.

As for `Cl.O=S(=O)(CCNCc1ccc(-c2ccc3ncnc(Nc4ccc(OCc5cccc(F)c5)c(Cl)c4)c3c2)o1)c1ccccc1` [GW633459A], the AC50 was 29.1 µM in test [1] (read-out: AC50) and “Phenotype: Inactive; Curve_Description: None” in test [2].

Regarding `Cl.c1ccc(Oc2ccc(Nc3ncc(-c4ccccc4)o3)cc2)cc1` [GW641155A], the AC50 entry in test [1] and in test [2] was “Phenotype: Inactive; Curve_Description: None” throughout.

Take `COc1ccc(-c2coc3ncnc(N)c23)cc1` [GW642125X]: the figures for the AC50 result in test [1] and in test [2] (read-out: AC50) were “Phenotype: Inactive; Curve_Description: None” and 20.6 µM, respectively.

As to `COc1ccc(-c2cc3c(N)ncnc3o2)cc1` [GW642138X], the AC50 was 6.51 µM in test [1] (read-out: AC50) and “Phenotype: Inactive; Curve_Description: None” in test [2].

Turning to `COc1cc(C=NNc2ncnc3c2cnn3Cc2ccccc2)ccc1O` [GW643971X], the AC50 was 29.1 µM in test [1] (read-out: AC50) and “Phenotype: Activator; Curve_Description: None” in test [2].

On to `COc1cc(/C=N/Nc2ncnc3c2cnn3C(C)C)ccc1O` [GW644007X], for which the AC50 in test [1] (read-out: AC50) was 5.8 µM; in test [2], “Phenotype: Inactive; Curve_Description: None”.

Take `Fc1cccc(COc2ccc(Nc3ncncc3C#Cc3ccccc3)cc2Cl)c1` [GW651576X]: the AC50 entry in test [1] and in test [2] was “Phenotype: Inactive; Curve_Description: None” in each case.

For `CCS(=O)(=O)c1ccc(OC)c(Nc2nccc(N(C)c3ccc4c(C)n[nH]c4c3)n2)c1.Cl` [GW654652C], the AC50 result in test [1] was “Phenotype: Inactive; Curve_Description: None”; in test [2] (read-out: AC50), 32.6 µM.

For `COC(=O)Nc1nc2cc(Oc3cccc(NC(=O)Nc4cc(C(F)(F)F)ccc4F)c3)ccc2[nH]1.Cl` [GW659386A], the AC50 is 16.3 µM in test [1] (read-out: AC50) and “Phenotype: Inactive; Curve_Description: None” in test [2].

Take `Nc1ccc(C#Cc2cncnc2Nc2ccc(OCc3cccc(F)c3)c(Cl)c2)cc1` [GW659893X]: the half-maximal activity concentration (AC50) in test [1] (read-out: AC50) is 20.6 µM; in test [2], “Phenotype: Inactive; Curve_Description: None”.

For `CCc1cccc(NC(=O)Nc2ccc(Oc3ccc4nc(NC(=O)OC)[nH]c4c3)cc2)c1` [GW673715X], the results for the AC50 in test [1] (read-out: AC50) and in test [2] were 32.6 µM and “Phenotype: Inactive; Curve_Description: None”, respectively.

Consider `CCS(=O)(=O)c1ccc(OC)c(Nc2ncc(-c3cccc(-c4ccccc4F)c3)o2)c1` [GW678313X], for which the AC50 entry in test [1] and in test [2] was “Phenotype: Inactive; Curve_Description: None” throughout.

As for `COc1ccc(-c2cc(-c3c[nH]nc3-c3ccccn3)ccn2)cc1` [GW679410X], the figures for the half-maximal activity concentration (AC50) in test [1] (read-out: AC50) and in test [2] were 16.3 µM and “Phenotype: Inactive; Curve_Description: None”, respectively.

`C#Cc1cccc(Nc2ncnc3ccc(OCCCCNCCS(C)(=O)=O)cc23)c1` [GW680191X]: the AC50 result in test [1] was “Phenotype: Inactive; Curve_Description: None”; in test [2] (read-out: AC50), 29.1 µM.

For the compound `COC(=O)Nc1nc2ccc(S(=O)(=O)c3ccc(NC(=O)Nc4cc(C(F)(F)F)ccc4F)cc3)cc2[nH]1.Cl` [GW680908A], the AC50 entry in test [1] and in test [2] was “Phenotype: Inactive; Curve_Description: None” throughout.

Take `Fc1ccc(-c2cc(-c3c[nH]nc3-c3ccccn3)ccn2)cc1` [GW680975X]: the AC50 entry in test [1] and in test [2] was “Phenotype: Inactive; Curve_Description: None” each time.

As to `CC(C)c1ccc(-c2cc(-c3c[nH]nc3-c3ccccn3)ccn2)cc1` [GW682841X], the AC50 entry in test [1] is “Phenotype: Activator; Curve_Description: None”; in test [2] (read-out: AC50), 1.46 µM.
